In ChEMBL document CHEMBL5223188, “Discovery of OICR12694: A Novel, Potent, Selective, and Orally Bioavailable BCL6 BTB Inhibitor” (ACS Med Chem Lett, 2023):

What was measured:
[1] = in vitro; conditions: mouse, liver microsomes
[2] = in vitro; conditions: human, Caco-2
[3] = in vitro; conditions: human, liver microsomes

Row | Structure (SMILES) | remaining at 1 h [1] | Papp A→B [2] | remaining at 1 h [3]
1 | C[C@H]1COCCN1c1cc(NC(=O)Cn2cc(-c3cc(Cl)c(O)c(C(N)=O)c3)c3c(=O)n(C)cnc32)c(Cl)cn1 | 63% | 3.6 ×10⁻⁶ cm/s | 27%
2 | C[C@H]1CN(C)CCN1c1cc(NC(=O)Cn2cc(-c3cc(F)c(O)c(C(N)=O)c3F)c3c(=O)n(C)cnc32)c(Cl)c(F)n1 | 43% | 2.8 ×10⁻⁶ cm/s | 16%
3 | C[C@H]1CN(C)CCN1c1cc(NC(=O)Cn2cc(-c3cc(F)c(O)c(C(N)=O)c3)c3c(=O)n(C)cnc32)c(Cl)cn1 | 49% | 0.5 ×10⁻⁶ cm/s | 62%
4 | C[C@@H]1COCCN1c1cc(NC(=O)Cn2cc(-c3cc(Cl)c(O)c(C(N)=O)c3)c3c(=O)n(C)cnc32)c(Cl)cn1 | 36% | 3 ×10⁻⁶ cm/s | 55%
5 | Cc1nc2c(c(-c3cc(C(N)=O)c(O)c(F)c3F)cn2CC(=O)Nc2cc(N3CCN(C)C[C@@H]3C)ncc2Cl)c(=O)n1C | 65% | 4.4 ×10⁻⁶ cm/s | 73%
